Measured values reported in patent US8115017B2, “C-phenyl 1-thioglucitol compound” (Taisho Pharmaceutical Co., Ltd, priority 2006, dated 2012).
pIC50: −log10 of the molar value.

Key:
human SGLT2 = biological target: T1, human SGLT2 (Homo sapiens, UniProt P31639); experiment: Inhibition test for sodium-dependent sugar uptake in CHO-K1 cells stably expressing human SGLT2; format: cell-based; settings: [14C]methyl α-D-glucopyranoside uptake, 37° C., 1 hour, read-out: human SGLT2 IC50 (50% inhibition of sugar uptake)
T1 construct: expressed in transfected cells; host or cells: CHO-K1
T1 sequence (P31639 1-672): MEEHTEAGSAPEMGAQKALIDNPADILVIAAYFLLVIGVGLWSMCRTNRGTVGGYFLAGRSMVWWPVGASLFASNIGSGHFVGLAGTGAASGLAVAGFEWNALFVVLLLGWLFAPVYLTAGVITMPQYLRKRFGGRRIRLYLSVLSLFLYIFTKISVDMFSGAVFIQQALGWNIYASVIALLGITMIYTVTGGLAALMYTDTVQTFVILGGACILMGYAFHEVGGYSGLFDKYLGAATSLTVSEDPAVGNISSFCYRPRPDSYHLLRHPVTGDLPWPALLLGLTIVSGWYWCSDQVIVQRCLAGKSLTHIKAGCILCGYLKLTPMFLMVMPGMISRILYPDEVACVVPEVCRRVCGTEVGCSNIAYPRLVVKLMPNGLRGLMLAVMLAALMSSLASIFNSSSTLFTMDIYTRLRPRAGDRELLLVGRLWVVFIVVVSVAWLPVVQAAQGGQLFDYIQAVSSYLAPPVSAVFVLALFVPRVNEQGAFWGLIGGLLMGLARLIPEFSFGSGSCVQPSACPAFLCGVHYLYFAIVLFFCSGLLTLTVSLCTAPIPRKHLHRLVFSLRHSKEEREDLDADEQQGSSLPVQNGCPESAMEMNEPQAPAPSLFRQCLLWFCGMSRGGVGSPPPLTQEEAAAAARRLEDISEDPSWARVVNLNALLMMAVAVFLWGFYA
Description: (§1) A human SGLT1 sequence (NM_000343) was reverse-transcribed and amplified from human small intestine mRNA, and then introduced into pCMV-tag5A (Stratagene). Likewise, a human SGLT2 sequence (NM_003041) was prepared from human kidney mRNA in the same manner and introduced into pcDNA3.1+hygro (Invitrogen). The individual cloned sequences were confirmed to be identical with the sequences reported.
(§2) The human SGLT1 and human SGLT2 expression vectors were each transfected into CHO-K1 cells using lipofectamine 2000 (Invitrogen). The cells were cultured in the presence of 500 μg/mL geneticin (SGLT1) or hygromycin B (SGLT2) to select resistant strains and specific activity of sugar uptake in the system shown below was used as an indicator to obtain SGLT-expressing cells.
(§3) The cells stably expressing human SGLT1 or human SGLT2 were used for an inhibition test of sodium-dependent glucose uptake activity.
(§4) Pretreatment buffer (140 mM choline chloride, 2 mM KCl, 1 mM CaCl2, 1 mM MgCl2, 10 mM HEPES/5 mM Tris, pH 7.4) was added in a volume of 200 μL to human SGLT1-expressing cells and 2 mL to human SGLT2-expressing cells, followed by incubation for 20 minutes. The pretreatment buffer was removed and replaced with uptake buffer containing a test compound (1 mM methyl α-D-glucopyranoside (containing [^14C]methyl α-D-glucopyranoside), 145 mM NaCl, 2 mM KCl, 1 mM CaCl2, 1 mM MgCl2, 10 mM HEPES/5 mM Tris, pH 7.4) in a volume of 75 μL for SGLT1 and 200 μL for SGLT2. Uptake reaction was performed at 37° C. for 30 minutes (SGLT1) or 1 hour (SGLT2). After the reaction, the cells were washed twice with washing buffer (10 mM methyl α-D-glucopyranoside, 140 mM choline chloride, 2 mM KCl, 1 mM CaCl2, 1 mM MgCl2, 10 mM HEPES/5 mM Tris, pH 7.4) in a volume of 200 μL for SGLT1 and 2 mL for SGLT2, and then dissolved in a 0.2 M NaOH solution (75 μL for SGLT1 and 400 μL for SGLT2). A liquid scintillator (Perkin Elmer) was added and mixed well with each sample, followed by measurement of radioactivity using a microBETA for SGLT1 or a liquid scintillation counter for SGLT2 (Beckman Coulter). For the control group, uptake buffer containing no test compound was prepared. Moreover, another uptake buffer containing choline chloride instead of NaCl was also prepared for basal uptake.
(§5) For determination of IC50 values, test compounds prepared at 6 appropriate concentrations were used and their concentrations required for 50% inhibition of the amount of sugar uptake (IC50 values) were calculated relative to the amount of sugar uptake in the control group (100%).

human SGLT1 = biological target: T2, human SGLT1 (Homo sapiens, UniProt P13866); experiment: Inhibition test for sodium-dependent sugar uptake in CHO-K1 cells stably expressing human SGLT1; format: cell-based; settings: [14C]methyl α-D-glucopyranoside uptake, 37° C., 30 minutes, read-out: human SGLT1 IC50 (50% inhibition of sugar uptake)
T2 construct: expressed in transfected cells; host or cells: CHO-K1
T2 sequence (P13866 1-664): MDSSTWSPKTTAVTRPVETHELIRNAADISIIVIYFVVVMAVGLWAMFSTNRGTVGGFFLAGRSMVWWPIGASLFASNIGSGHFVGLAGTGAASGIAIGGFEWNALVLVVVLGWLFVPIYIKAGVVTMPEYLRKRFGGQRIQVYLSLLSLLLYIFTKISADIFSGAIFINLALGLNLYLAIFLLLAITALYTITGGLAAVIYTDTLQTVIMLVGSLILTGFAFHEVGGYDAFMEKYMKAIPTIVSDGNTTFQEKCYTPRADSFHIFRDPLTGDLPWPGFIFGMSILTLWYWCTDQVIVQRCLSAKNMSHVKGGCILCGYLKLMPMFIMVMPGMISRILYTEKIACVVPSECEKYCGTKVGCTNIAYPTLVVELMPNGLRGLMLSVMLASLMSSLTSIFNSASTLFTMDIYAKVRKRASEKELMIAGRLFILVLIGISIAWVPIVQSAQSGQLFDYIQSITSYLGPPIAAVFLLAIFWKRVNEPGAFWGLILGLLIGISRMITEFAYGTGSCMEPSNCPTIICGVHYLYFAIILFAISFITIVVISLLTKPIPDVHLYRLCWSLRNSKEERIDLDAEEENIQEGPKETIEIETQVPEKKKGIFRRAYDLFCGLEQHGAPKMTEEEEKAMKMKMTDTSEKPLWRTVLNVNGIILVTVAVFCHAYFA
Description: as §1, §2, §3, §4, §5

[1] = system: Streptozotocin-induced diabetic model rats; experiment: Oral glucose tolerance test in streptozotocin-induced diabetic model rats (hypoglycemic effect); format: in vivo, rat; settings: STZ diabetic SD/IGS rats; 1 mg/kg oral; glucose 2 g/kg oral; decrease in blood glucose ΔAUC 0-1 h relative to control group
Description: SD/IGS rats at 7 weeks of age (male, Charles River Laboratories Japan Inc.) were fasted for about 16 hours and then injected with 50 mg/kg streptozotocin (STZ) via the tail vein under ether anesthesia to prepare diabetic model rats. Similarly, another group of SD/IGS rats was injected with 1.25 mmol/L citric acid in physiological saline (1 mL/kg) via the tail vein under ether anesthesia to prepare normal control rats. At one week (8 weeks of age) after injection of STZ or 1.25 mmol/L citric acid in physiological saline, the rats were provided for an oral glucose tolerance test.
After the rats were fasted for about 16 hours, drug groups were each orally administered with a drug (1 mg/kg) suspended in a 0.5% aqueous carboxymethylcellulose (CMC) solution, while the control group was orally administered with a 0.5% aqueous CMC solution alone. At 5 minutes after drug administration, a glucose solution (2 g/kg) was orally administered and blood was collected at 5 points in total: before drug administration (0 hour) and 0.25, 0.5, 1 and 2 hours after oral administration.
Blood was collected from the orbital venous sinus of each rat under ether anesthesia using a heparin-coated blood collection tube, and centrifuged to separate plasma. Plasma glucose concentrations were quantified by measurement with a Glucose CII-Test Wako (Wako Pure Chemical Industries, Ltd., Japan). To determine the intensity of hypoglycemic effect, blood glucose levels measured between 0 and 1 hour in each drug group were analyzed by the trapezoidal method to calculate the area under the blood glucose-time curve (AUC), followed by basal subtraction to obtain a blood glucose increment (ΔAUC).

Row | pIC50 (human SGLT2) | pIC50 (human SGLT1) | SMILES | STZ rat-OGTT (2 g/Kg) % inhibition ΔAUC0-1 h (mgh/dL) @1 mg/Kg [1] [% inhibition]
1 | 7.49 | 7.66 | Cc1cc(O)c([C@@H]2S[C@H](CO)[C@@H](O)[C@H](O)[C@H]2O)cc1Cc1ccc(CCCNC(=O)NC(C)(C)CO)cc1 [Example 6, (1S)-1-{5-[4-(3-{[(2-hydroxy-1,1-dimethylethyl)aminocarbonyl]amino}propyl)benzyl]-2-hydroxy-4-methylphenyl}-1,5-anhydro-1-thio-D-glucitol] | 69.2
2 | 7.68 | 7.66 | Cc1cc(O)c([C@@H]2S[C@H](CO)[C@@H](O)[C@H](O)[C@H]2O)cc1Cc1ccc(CCCC(=O)NC(C)(CO)CO)cc1 [Example 2, (1S)-1,5-anhydro-1-{2-hydroxy-5-[4-(4-{[2-hydroxy-1-(hydroxymethyl)-1-methylethyl]amino}-4-oxobutyl)benzyl]-4-methylphenyl}-1-thio-D-glucitol] | 65.4
3 | 7.31 | 7.33 | Cc1cc(O)c([C@@H]2S[C@H](CO)[C@@H](O)[C@H](O)[C@H]2O)cc1Cc1ccc(CCCC(=O)NC(C)(C)C(N)=O)cc1 [Example 4, (1S)-1-[5-(4-{4-[(2-amino-1,1-dimethyl-2-oxoethyl)amino]-4-oxobutyl}benzyl)-2-hydroxy-4-methylphenyl]-1,5-anhydro-1-thio-D-glucitol] | 66.5
4 | 7.00 | 7.70 | Cc1cc(CCCC(=O)NC(C)(C)CO)ccc1Cc1cc([C@@H]2S[C@H](CO)[C@@H](O)[C@H](O)[C@H]2O)c(O)cc1C [Example 5, (1S)-1,5-anhydro-1-[2-hydroxy-5-(4-{4-[(2-hydroxy-1,1-dimethylethyl)amino]-4-oxobutyl}-2-methylbenzyl)-4-methylphenyl]-1-thio-D-glucitol] | –
5 | 7.42 | 7.10 | Cc1cc(O)c([C@@H]2S[C@H](CO)[C@@H](O)[C@H](O)[C@H]2O)cc1Cc1ccc(CCCCC(=O)NC(C)(C)CO)cc1 [Example 8, (1S)-1,5-anhydro-1-[2-hydroxy-5-(4-{5-[(2-hydroxy-1,1-dimethylethyl)amino]-5-oxopentyl}benzyl)-4-methylphenyl]-1-thio-D-glucitol] | –
6 | 7.77 | 7.96 | Cc1cc(O)c([C@@H]2S[C@H](CO)[C@@H](O)[C@H](O)[C@H]2O)cc1Cc1ccc(CCCC(=O)NC(C)(C)CO)cc1 [Example 1, (1S)-1,5-anhydro-1-[2-hydroxy-5-(4-{4-[(2-hydroxy-1,1-dimethylethyl)amino]-4-oxobutyl}benzyl)-4-methylphenyl]-1-thio-D-glucitol] | 70.4
7 | 7.51 | 7.46 | Cc1cc(O)c([C@@H]2S[C@H](CO)[C@@H](O)[C@H](O)[C@H]2O)cc1Cc1ccc(CCCC(=O)NC(CO)(CO)CO)cc1 [Example 3, (1S)-1,5-anhydro-1-{2-hydroxy-5-[4-(4-{[2-hydroxy-1,1-bis(hydroxymethyl)ethyl]amino}-4-oxobutyl)benzyl]-4-methylphenyl}-1-thio-D-glucitol] | 60.8
